In patent US20150119792A1, “LIGHT DEGRADABLE DRUG DELIVERY SYSTEM FOR OCULAR THERAPY” (priority 2012, published 2015):

Legend:
Raw 264.7 cells = test: Light-triggered release of FDA from nanoparticles, cell fluorescence (imaging, plate reader); format: cell-based; settings: UV irradiation, free FDA
Description: The dye selected for these studies was Fluorescein Diacetate (FDA), which is an ester of fluorescein. […] Nanoparticles containing FDA were formulated through an inverse emulsion/solvent evaporation process. […] The resulting solution was added to a larger volume of 1% solution of polyvinyl alcohol (PVA) and probe sonicated to form the emulsion. The organic solvent was then evaporated under vacuum, and PVA removed by tangential flow ultrafiltration. The resulting solution was then freeze-dried with mannitol as cryoprotectant. The resulting particles were characterized by dynamic light scattering (DLS) and scanning electron microscopy (SEM). The encapsulation efficiency was evaluated by liquid-liquid extraction of FDA from particles and fluorescence measurements. […] As a more quantitative assay, we measured the amount of fluorescence of the cells using a plate reader (same cell count in each well). […] FIG. 4 is a bar graph showing the measured fluorescence for irradiated and non-irradiated Raw 264.7 cells. The cells in irradiated wells show higher fluorescence due to triggered release of payload (dark bars) as compared to cells in non-irradiated wells (light bars). […] We found an 18-fold increase in fluorescence upon irradiation as compared to the non-irradiated control in Raw 264.7 macrophage cell line, as well as a 3-fold increase upon irradiation in retinal cell line.

[1] = Visual and microscopic inspection of the eye after intra-vitreous injection; format: in vivo, Sprague-Dawley albino rats; settings: compared with PBS buffer (left eye)
Description: WO2011/038117. Initial in vivo testing on a rat model (Sprague-Dawley albino rats) was performed to determine the biocompatibility of the empty polymer particles without encapsulated cargo. This involved intra-vitreous injection of different concentrations of the light-degradable particles (“NP low” and “NP high” test categories in FIG. 2A) as well as different concentrations of nanoparticles composed of a known biocompatible material (PLGA). In each animal, the test material was injected into the right eye while a phosphate buffered solution (PBS) was injected into the left eye as a negative control. Additionally, animals were administered nanoparticle solutions that had previously been irradiated with UV light (˜350 nm) to determine any deleterious effects of the degradation byproducts (“NP low+UV” and “NP high+UV”.) Lipopolysaccharide (LPS) was injected in another group as a positive control as it is known to cause inflammation. […] FIG. 2A illustrates the intra-ocular pressure (IOP) data for these tests, with each group of bars, with the bars proceeding from left to right in the figure, corresponding to pre-operative IOP, drug (nanoparticle) day 1, PBS at day 1 after injection, drug (nanoparticle) day 4 after injection, PBS day 4, drug day 5, PBS day 5 etc. up to day 7 after injection. […] Second, the intra-ocular pressure was measured daily. […]

Compound: CC(=O)Oc1ccc2c(c1)Oc1cc(OC(C)=O)ccc1C21OC(=O)c2ccccc21 [FDA, Fluorescein Diacetate]
- bleaching of FDA by irradiation (Raw 264.7 cells): does not cause significant bleaching

Compound: Lipopolysaccharide [LPS]
- visual and microscopic inspection of the eye [1]: caused tearing
